Reference: paper PMC8700061, “Fragment-Sized and Bidentate (Immuno)Proteasome Inhibitors Derived from Cysteine and Threonine Targeting Warheads” (Cells, 2021)
Marks after values point to notes of the source that are not given here.

Legend:
[1] = biological target: T1, β2i subunit of human iCP (Homo sapiens, UniProt P40306+P49720); assay: Residual β2i activity, Boc-LRR-AMC; assay type: biochemical; conditions: 10 µM, PA28α
T1 construct: purchased Boston Biochem, Inc., Cambridge, MA, USA
Experimental: (§1) Residual activity measurements were performed at 10 μM final concentrations in the assay buffer (0.01% SDS, 50 mM Tris-HCl, 0.5 mM EDTA, pH 7.4). Stock solutions of the compounds were prepared in DMSO. To 50 μL of each compound in buffer, 25 μL of 0.8 nM human iCP or human cCP (both from Boston Biochem, Inc., Cambridge, MA, USA) were added. After incubation at 37 °C for 30 min, the reaction was started by adding of 25 μL of 100 μM relevant fluorogenic substrate: acetyl-Nle-Pro-Nle-Asp-AMC (Ac-nLPnLD-AMC, (Bachem, Bubendorf, Switzerland)) for β1, acetyl-Pro-Ala-Leu-7-amino-4-methylcoumarin (Ac-PAL-AMC, (Boston Biochem, Inc., Cambridge, MA, USA)) for β1i, t-butyloxycarbonyl-Leu-Arg-Arg-7-amino-4-methylcoumarin (Boc-LRR-AMC, (Bachem, Bubendorf, Switzerland)) for β2 and β2i, succinyl-Leu-Leu-Val-Tyr-7-amino-4-methylcoumarin (Suc-LLVY-AMC) (Bachem, Bubendorf, Switzerland) for β5 and β5i. Reaction progress was recorded on BioTek Synergy HT microplate reader by monitoring fluorescence at 460 nm (λex = 360 nm) for 90 min at 37 °C. The initial linear ranges were used to calculate velocity and determine residual activity. In the case of evaluation of β1, βi, β2, and β2i activities, the assay buffer was modified by replacing SDS with the proteasomal activator PA28α (Boston Biochem, Inc., Cambridge, MA, USA).

[2] = biological target: T2, β2 subunit of human cCP (Homo sapiens, UniProt P49720+Q99436); assay: Residual β2 activity, Boc-LRR-AMC; assay type: biochemical; conditions: 10 µM, PA28α
T2 construct: purchased Boston Biochem, Inc., Cambridge, MA, USA
Experimental: as §1

[3] = biological target: T3, β1i subunit of human iCP (Homo sapiens, UniProt P28065+P40306); assay: Inhibition of β1i activity (RA, IC50), Ac-PAL-AMC; assay type: biochemical; conditions: PA28α; for IC50: 30 min pre-incubation
T3 construct: purchased Boston Biochem, Inc., Cambridge, MA, USA
Experimental: as §1
(§2) Final assay mixtures contained 0.2 nM human iCP or 0.2 nM human cCP in assay buffer (0.01% SDS (or PA28α in cases of β1, β1i subunits), 50 mM Tris-HCl, 0.5 mM EDTA, pH 7.4). Inhibitors were dissolved in DMSO and added to the black 96-well plates for at least eight different concentrations (the final concentration of DMSO was not more than 1%). After 30 min of incubation at 37 °C, the reaction was started by adding the substrate Suc-LLVY-AMC (for β5 and β5i) or Ac-nLPnLD-AMC (for β1) or Ac-PAL-AMC (for β1i). Fluorescence was monitored at 460 nm (λex = 360 nm) for 90 min at 37 °C. The progress of the reactions was recorded and the initial linear ranges were used to calculate the velocity. IC50 values were calculated using GraphPadPrism (GraphPad Software, San Diego, CA, USA) and are means from at least three independent determinations.

[4] = biological target: T4, β1 subunit of human cCP (Homo sapiens, UniProt P28072+Q99436); assay: Inhibition of β1 activity (RA, IC50), Ac-nLPnLD-AMC; assay type: biochemical; conditions: PA28α; for β1 (RA [%]): 10 µM, Table 3
T4 construct: purchased Boston Biochem, Inc., Cambridge, MA, USA
Experimental: as §1, §2

[5] = UV-Vis-based stability assay in buffer; assay type: physicochemical; conditions: after 1 h, assay buffer pH 7.4, 37 °C, 50 µM
Experimental: The aqueous stability of all compounds was determined spectrophotometrically by following the changes in the absorption spectra of the compounds. The buffer solution (50 mM Tris-HCl, 0.5 mM EDTA, pH 7.4) was pre-incubated at 37 °C. Aliquots of the compounds studied (1 mM in DMSO) were transferred to a 96-well flat-bottom UV-transparent microplate (Corning, CLS3635, Corning Inc, Corning, NY, USA) containing the buffer solution to obtain a 50 μM solution containing 5% DMSO (final volume, 300 μL). The plate was incubated without lid at 37 °C in a plate reader (Synergy H4, BioTek Instruments, Inc., Santa Clara, CA, USA) and the absorbance spectrum (244–400 nm) was acquired in sweep mode after 0, 15, 30, 60, 120, 180, and 240 min using a discontinuous kinetic procedure in Gen5 software (BioTek Instruments, Inc., Santa Clara, CA, USA). The time required to read the entire plate was 3 min. To determine the baseline, the compound solution was replaced with pure DMSO and subtracted from each reading. Compounds with an absorbance maximum of less than 0.20 AU were not evaluated using these assays due to the high experimental error. For other compounds, the relative absorbance difference between the first time point and 60 min at the most responsive wavelength was calculated. If the relative absorbance difference for the compound in the buffer was below 0.1, between 0.1–0.2, and above 0.2, the compound was classified as stable, intermediate, and unstable, respectively.

[6] = system: GSH; assay: HPLC-based GSH reactivity assay; assay type: physicochemical; conditions: 5 mM glutathione (GSH) in PBS buffer; 250 µM compound, 5 mM GSH, PBS pH 7.4; read-out: Reactivity with GSH (HPLC-based assay), t1/2
Experimental: GSH reactivity assay was performed as described by Petri et al.; 500 μM solution of compound (PBS buffer pH 7.4, 10% MeCN, 250 μL) with 200 μM solution of indoprofen as internal standard were added to 10 mM GSH solution (dissolved in PBS buffer, 250 μL) in a 1:1 ratio. […] The final mixture was analyzed by HPLC after 0, 1, 2, 4, 8, 12, 24, 48, and 72 h. The degradation kinetics were also studied using the method described in [24], except that pure PBS buffer was used instead of GSH solution. […] The area under the curve (AUC) values were determined by integrating the HPLC spectra and then corrected with the internal standard.

[7] = biological target: T5, β5i subunit of human iCP (Homo sapiens, UniProt P20618+P28062); assay: Inhibition of β5i activity (RA at 10 µM, IC50, IC50 shift), Suc-LLVY-AMC; assay type: biochemical; conditions: for RA (%) at 10 µM, β5i: 10 µM compound; for RA (%) at 10 µM, β5i / IC50: 30 min pre-incubation, SDS activator; for Group efficiency (GE): ΔpIC50/ΔNheavy with compound 1 as reference; for IC50: read-out: IC50 (µM), β5i
T5 construct: purchased Boston Biochem, Inc., Cambridge, MA, USA
Experimental: as §1
as §2, with “After 30 min of incubation at 37 °C, the reaction was started by adding the substrate Suc-LLVY-AMC (for β5 and β5i) or Ac-nLPnLD-AMC (for β1) or Ac-PAL-AMC (for β1i).” left out

[8] = HPLC-based stability assay in PBS; assay type: physicochemical; conditions: PBS pH 7.4
Experimental: GSH reactivity assay was performed as described by Petri et al.; 500 μM solution of compound (PBS buffer pH 7.4, 10% MeCN, 250 μL) with 200 μM solution of indoprofen as internal standard were added to 10 mM GSH solution (dissolved in PBS buffer, 250 μL) in a 1:1 ratio. The final concentration was 250 μM compound, 100 μM indoprofen, 5 mM GSH and 5% MeCN (500 μL). The final mixture was analyzed by HPLC after 0, 1, 2, 4, 8, 12, 24, 48, and 72 h. The degradation kinetics were also studied using the method described in [24], except that pure PBS buffer was used instead of GSH solution. In this experiment, the final concentration of the mixture was 250 μM fragment, 100 μM indoprofen and 5% MeCN. The area under the curve (AUC) values were determined by integrating the HPLC spectra and then corrected with the internal standard.

[9] = biological target: T6, β5 subunit of human cCP (Homo sapiens, UniProt P20618+P28074); assay: Inhibition of β5 activity (RA, IC50), Suc-LLVY-AMC; assay type: biochemical; conditions: 30 min pre-incubation, SDS
T6 construct: purchased Boston Biochem, Inc., Cambridge, MA, USA
Experimental: as §1, §2

Stability in Buffer (HPLC-based assay) [8] | Compound | Stability in Buffer (UV-Vis-based assay) [5] | further results
 | CC(C)C[C@H](NC(=O)[C@H](Cc1ccccc1)NC(=O)c1cnccn1)B(O)O [Bortezomib, reference compound] |  | β2i (RA [%]) ([1]; Table 3): 16 ± 5%; β2 (RA [%]) ([2]; Table 3): 62 ± 9%; remaining activity at 10 µM ([3]; 10 µM, Table 3, read-out: β1i residual activity at 10 µM): 0%; β1 (RA [%]) [4]: 0%
stable ^c,d | COc1ccc2oc(C#N)nc2c1 [Compound 7] | stable ^c,d (relative absorbance difference for the compound in the buffer was below 0.1) | half-life at 250 µM [6]: < 3 min; RA (%) at 10 µM, β5i [7]: 84 ± 11%; RA (%) at 10 µM, β5i ([7]; listed as 5-OMe): 84%; Group efficiency (GE) [7]: 0.01
stable | COc1ccc2nc(C#N)oc2c1 [Compound 8] | intermediate (between 0.1–0.2) | β2i (RA [%]) ([1]; Table 3): NA (NA, Not active (RA above 90%)); β5 (RA [%]) at 10 µM [9]: 74% ^b; β2 (RA [%]) ([2]; Table 3): NA (NA, Not active (RA above 90%)); IC50 [3]: 69 µM; IC50 [7]: 11 ± 6 µM; Group efficiency (GE) [7]: 0.44; β1 (RA [%]) [4]: NA (NA, Not active (RA above 90%))
 | N#Cc1nc2ccc(O)cc2o1 [Compound 12] | intermediate ^c (between 0.1–0.2) | 
unstable | N#Cc1nc2c([N+](=O)[O-])cccc2o1 [Compound 16] | intermediate (between 0.1–0.2) | 
 | N#Cc1nc2ccc([N+](=O)[O-])cc2o1 [Compound 18] | unstable ^c (above 0.2) | 
 | N#Cc1nc2cccc([N+](=O)[O-])c2o1 [Compound 19] | stable ^c (relative absorbance difference for the compound in the buffer was below 0.1) | RA (%) at 10 µM, β5i [7]: 82 ± 2%
 | N#Cc1nc2c(N)cccc2o1 [Compound 20] | stable ^c (relative absorbance difference for the compound in the buffer was below 0.1) | 
 | N#Cc1nc2cc(N)ccc2o1 [Compound 21] | stable ^c (relative absorbance difference for the compound in the buffer was below 0.1) | 
 | N#Cc1nc2cccc(N)c2o1 [Compound 23] | stable ^c (relative absorbance difference for the compound in the buffer was below 0.1) | 
 | N#Cc1nc2c(NC(=O)c3ccccc3)cccc2o1 [Compound 24] | stable ^c (relative absorbance difference for the compound in the buffer was below 0.1) | 
 | N#Cc1nc2cccc(NC(=O)c3ccccc3)c2o1 [Compound 27] | stable ^c (relative absorbance difference for the compound in the buffer was below 0.1) | 
unstable ^b,c | CC(C)C[C@H](NC(=O)Cn1c(C#N)nc2ccccc21)B1O[C@@H]2C[C@@H]3C[C@@H](C3(C)C)[C@]2(C)O1 [Compound 29] | unstable ^b,c (above 0.2) | 
stable | CC(C)C[C@H](NC(=O)CCCCn1c(C#N)nc2ccccc21)B1O[C@@H]2C[C@@H]3C[C@@H](C3(C)C)[C@]2(C)O1 [Compound 32] | intermediate (between 0.1–0.2) | IC50 [9]: 1.6 ± 0.8 µM; IC50 [7]: 13 ± 2 µM
unstable ^b,c | CC(C)C[C@H](NC(=O)Cn1c(C#N)nc2ccccc21)B(O)O [Compound 33] | unstable ^b,c (above 0.2) | 
 | CC(C)C[C@H](NC(=O)CCCCn1c(C#N)nc2ccccc21)B(O)O [Compound 36] | stable ^b (relative absorbance difference for the compound in the buffer was below 0.1) | β2i (RA [%]) ([1]; Table 6): NA (NA, Not active (RA above 95%)); IC50 [9]: 6.4 ± 2.6 µM; β2 (RA [%]) ([2]; Table 6): NA (NA, Not active (RA above 95%)); IC50 [3]: 4.9 ± 0.4 µM; IC50 [7]: 59 ± 7 µM; IC50 ([4]; 30 min pre-incubation): 23 ± 6 µM
stable | CC(C)C[C@H](NC(=O)CCn1c(C#N)nc2ccc(Cl)cc21)B1O[C@@H]2C[C@@H]3C[C@@H](C3(C)C)[C@]2(C)O1 [Compound 37] | intermediate (between 0.1–0.2) | β5 (RA [%]) at 10 µM [9]: 14 ± 1% ^e; IC50 [7]: 1.6 ± 1.3 µM

Compound | Stability in Buffer (HPLC-based assay) [8] | Stability in Buffer (UV-Vis-based assay) [5] | further results
N#Cc1nc2cc(NC(=O)c3ccccc3)ccc2o1 [Compound 25] | stable ^c,d | stable ^c,d (relative absorbance difference for the compound in the buffer was below 0.1) | 
N#Cc1nc2ccc(NC(=O)c3ccccc3)cc2o1 [Compound 26] | stable | unstable (above 0.2) | 
